Test results reported in patent US6362207B1, “Methods of treating viral infections with benzimidazoles” (priority 1995, dated 2002).
Read-outs that look alike come from different tables or passages of the source.

Tests used:
[1] = tested on: Human Tumor Colony Forming Units; assay: In Vitro Human Tumor Colony Forming Units Test
A549 lung tumor cells = assay: MTT cell viability test, lung tumor cells; type: cell-based, human; conditions: for Optical Density: A-549, control 0.600; for EC-50 Result: MTT, 5 day incubation
[2] = tested on: HIV-1 in ACH-2 cells (T cell line A3.01); assay: Additional chronic HIV studies, T cells; type: cell-based; conditions: 60 μg/ml
Method: (§1) Chronic HIV-1 infected cells U1 were derived from an acute HIV-1 infection of the promonocytic cell line, U937. The chronic HIV-1 infected cells, ACH-2 were derived from an acute HIV-1 infection of the T cell line, A3.01.
(§2) These cells were cultured in medium and the phorbol ester, PMA. PMA causes the cells (both U1 and ACH-2) to be activated and not divide but it also causes the U-1 cells to differentiate. […] Cell viability was measured when these cell lines were treated with the test compound.
(§3) Both cell lines constituitively produce a small amount of HIV-1. ACH-2 cell lines tend to produce more HIV-1 than U1 cells as shown by p24 ELISA. When either cell line is cultured in the presence of PMA there is an increase in the quantity of HIV-1 produced as measured by the p24 antigen ELISA.
(§4) In addition, the number of […] positive HIV mRNA expressing cells per microscopic field is measured. Comparisons can be made from these numbers since the same number of cells were adhered to the glass slides for each drug concentration 10×10^6 cells/ml).
(§5) These cells were treated with test samples. […] The positive control was interferon which suppressed HIV monocytes replication by 80%.

P388 = assay: P-388 model for leukemia, T/C; type: in vivo, mice
Source text: In the P-388 model for leukemia there was a dose responsive effect and the results were good.
The NCI Measure of Success is T/C=125.

HIV = assay: microbe, parasite or virus in culture; type: cell-based
HT29 colon tumor cells = assay: MTT cell viability test, colon tumor cells; type: cell-based, human; conditions: for Optical Density: HT-29, control 0.398; for EC-50 Result: MTT, 5 day incubation
herpes [3] = assay: In vivo herpes screening test; design: species or system mice
Method: The positive control was acyclovir at 75 mg/kg dose; 60% of the mice survived with a mean death date of 17.2 days.

influenza [4] = assay: In vitro influenza model; type: cell-based
[5] = tested on: HIV-1 (CEM-SK1, U937-SK1, H9-SK1, U1 and ACH2 cells); assay: HIV Virus Replication Study in chronically infected cells; type: cell-based
Method: Thiabendazole was tested in chronically infected HIV virus. These cell populations contain integrated copies of the HIV genome and constituitively produce HIV at relatively high levels (CEM-SK1, U937-SK1 and H9-SK1 from Frederick Research Center, Maryland) or are latently infected and only produce virus after stimulation with phorbol esters, tumor necrosis factor or IL6 (U1 and ACH2).
Toxicity to the chronically infected cells was similar to that observed with the uninfected cells.
After 28 days of treatment on chronically infected cells, the toxicity of the compound to the target cells appeared similar in both uninfected and chronically infected cells.
This reduction of virus production occurs at concentrations which are nontoxic to the host cell and which have no effect on the synthesis of cellular DNA, RNA and protein.

[6] = tested on: HIV, chronically infected cells; assay: Reappearance of virus production from chronically infected cells previously treated; type: cell-based
[7] = tested on: MX1 breast cancer tumors implanted subcutaneously; assay: Tumor growth reduction in mice models (Table 5), breast; type: in vivo
influenza [8] = assay: In vivo model for influenza; design: species or system mice
Method: The positive control was amantadine (75 mg/kg) with 100% of the mice surviving for 21 days. 2-(Methoxycarbonylamino)benzimidazole was not active in the same test.

herpes [9] = assay: In vitro herpes model; type: cell-based
B-16 mouse melanoma = tested on: B-16 mouse melanoma
Method: The data in Tables 1, 2 and 3 are reported in T/C which is interpreted using the following scale:
long term survivors for P388 is >30 days, for B16 it is >60 days. The NCI Measure of Success is T/C=125.
This study was performed in black mice injected i.p. with B-16 mouse melanoma which many researchers believe is the most predictive model for efficacy in humans. […] Death is the end point in this model.

[10] = tested on: HIV, chronically infected cells; assay: Virus Resistance Studies; type: cell-based; conditions: cultures treated at 40 and 80 μg/ml
[11] = tested on: HIV, pretreated chronically infected cells; type: cell-based; conditions: irrespective of the culture conditions
[12] = tested on: breast tumor cells (MCF-7); assay: Related study of tumor cell killing (optical density); type: cell-based; conditions: control 0.245
Source text: In a related study using lung tumor cells (A-549) breast tumor cells (MCF-7) and colon tumor cells (HT-29), thiabeadazole effectively killed these cells.

[13] = tested on: HIV-1 in U1 cells (promonocytic, from U937); assay: Additional chronic HIV studies, monocytes; type: cell-based
Method: as §1, §2, §3, §4, §5

rhinovirus = assay: In vitro rhinovirus model; type: cell-based
[14] = type: in vivo
Source text: Additional in vivo cancer studies are presented in a tabular form below. The data is presented in the following format—dose regimen in parenthesis, dosage in mg/kg: tumor growth suppression (tg supp.), toxic deaths/number of test subjects (deaths), % weight change (wt).

MX1 breast cells = assay: MTT cell viability test, breast tumor cells; type: cell-based, human; conditions: 5 day incubation
MCF-7L breast line = MCF-7L breast line study versus Navelbine and Taxol, tumor weight; type: in vivo, mice; conditions: 16 mg/kg qd×5 i.p., carbendazim treatment begun on day 130; c1-c4 = day 236, 239, 245, 249
lung = type: in vivo; conditions: A549-lung, positive control 125 mg/kg
[15] = given for perspective; cited from earlier work
colon = assay: Tumor growth reduction in mice models (Tables 5 and 6), colon; type: in vivo; conditions: HT29-colon, positive control 4 mg/kg
[16] = SK-MES, positive control 2 mg/kg, 5 doses
[17] = SK-MES, positive control 20 mg/kg, 5 doses
[18] = positive control, 300 mg/kg on dose
[19] = A549 (lung), positive control 125 mg/kg
[20] = DU-145, positive control 300 mg/kg, 1 dose
[21] = HT29 (colon), positive control 300 mg/kg, 1 dose
[22] = MCF-7L (breast), positive control 300 mg/kg, 1 dose
[23] = MX1 xenograft, positive control 300 mg/kg, 1 dose

SMILES: c1ccc2[nH]c(-c3cscn3)nc2c1 [thiabendazole, 2-(4-thiazolyl)-1-H-benzimidazole]
- positive results / tumors tested ([1]; 1 Hour Exposure, 0.5 μg/ml): 0/3
- positive results / tumors tested ([1]; 1 Hour Exposure, 5.0 μg/ml): 0/3
- positive results / tumors tested ([1]; 1 Hour Exposure, 50.0 μg/ml): 0/3
- positive results / tumors tested ([1]; Continuous Exposure, 0.5 μg/ml): 1/10
- positive results / tumors tested ([1]; Continuous Exposure, 5.0 μg/ml): 2/10
- positive results / tumors tested ([1]; Continuous Exposure, 50.0 μg/ml): 7/10
- Optical Density (A549 lung tumor cells; 0.87 ppm): 1.32
- Optical Density (A549 lung tumor cells; 3.46 ppm): 1.12
- Optical Density (A549 lung tumor cells; 17.3 ppm): 0.851
- Optical Density (A549 lung tumor cells; 35 ppm): 0.411
- Optical Density (A549 lung tumor cells; 173 ppm): 0.007
- increase of T-cell HIV replication [2]: 26%
- activity against P388 (P388; mouse, in vivo): no activity
- inhibition at 60 µg/mL (HIV; Human immunodeficiency virus 1, 60 μg/ml, read-out: inhibition of viral replication): 98%
- Optical Density (HT29 colon tumor cells; 0.87 ppm): 0.852
- Optical Density (HT29 colon tumor cells; 3.46 ppm): 0.713
- Optical Density (HT29 colon tumor cells; 17.3 ppm): 0.204
- Optical Density (HT29 colon tumor cells; 35 ppm): 0.011
- Optical Density (HT29 colon tumor cells; 173 ppm): 0.005
- mean death date (herpes [3]; 100 mg/kg): 9.2
- mice survived (herpes [3]; 100 mg/kg): 50%
- mean death date (herpes [3]; 200 mg/kg): 10.4
- mice survived (herpes [3]; 200 mg/kg): 10%
- activity (influenza [4]): no activity
- concentration at which stable reductions in virus production were observed ([5]; after 28 days of treatment): greater than 10 μg/ml
- concentrations that inhibited virus production ([5]; chronically infected cells): 1 to 10 µg/mL
- day by which virus production resumed after washing free of compound ([6]; 40 μg/ml): ≤ 12 days
- day at which virus production was observed after washing free of compound ([6]; highest concentrations): ~70 days
- time until virus production resumed after washing free of compound ([6]; lower concentrations (20 μg/ml and 4 μg/ml)): ≤ 4 days
- activity against MX1 breast cancer tumors ([7]; implanted subcutaneously under the mice skin): no activity
- mean death date (influenza [8]; 100 mg/kg): 8.7 days
- mice survived (influenza [8]; 100 mg/kg): 62%
- mean death date (influenza [8]; 200 mg/kg): 8 days
- mice survived (influenza [8]; 200 mg/kg): 67%
- activity (herpes [9]): no activity
- activity against B16 (B-16 mouse melanoma; mouse, in vivo): no activity
- virus production [10]: totally suppressed
- virus production from pretreated cell populations, Groups 1-3 [11]: identical
- Optical Density ([12]; 0.87 ppm): 0.507
- Optical Density ([12]; 3.46 ppm): 0.466
- Optical Density ([12]; 17.3 ppm): 0.258
- Optical Density ([12]; 35 ppm): 0.025
- Optical Density ([12]; 173 ppm): 0.007
- suppression of replication in the HIV monocytes ([13]; 60 μg/ml): 74%

SMILES: COc1ccc2nc(C(O)C(O)c3nc4ccc(OC)cc4[nH]3)[nH]c2c1 (stereo not shown) [A36683, reference compound]
- therapeutic index (TI), ratio of toxic dose to efficacious dose (rhinovirus): 1000-3200

SMILES: CCC1=C[C@@H]2CN(C1)Cc1c([nH]c3ccccc13)[C@@](C(=O)OC)(c1cc3c(cc1OC)N(C)[C@H]1[C@@](O)(C(=O)OC)[C@H](OC(C)=O)[C@]4(CC)C=CCN5CC[C@]31[C@@H]54)C2 [Navelbine]
- % weight change (wt) [14, 16]: −5%
- toxic deaths/number of test subjects (deaths) [14, 16]: 1/10
- tumor growth suppression (tg supp.) [14, 16]: 26%
- increased life span, Positive Control (B-16 mouse melanoma; B16 melanoma, positive control (2)): 265%

SMILES: Cc1cn([C@H]2C[C@H](N=[N+]=[N-])[C@@H](CO)O2)c(=O)[nH]c1=O [AZT, reference compound]
- inhibition of viral replication (HIV; 1 μg/ml): 98%
- activity in this model ([13]; chronic HIV model): no activity

SMILES: COc1cccc2c1C(=O)c1c(O)c3c(c(O)c1C2=O)C[C@@](O)(C(=O)CO)C[C@@H]3O[C@H]1C[C@H](N)[C@H](O)[C@H](C)O1 [Adriamycin, reference compound]
- EC-50 Result (A549 lung tumor cells; A549, first column): 0.03 ppm
- EC-50 Result (A549 lung tumor cells; A549, second column): 0.009 ppm
- EC-50 Result (HT29 colon tumor cells; HT29, first column): 0.03 ppm
- EC-50 Result (HT29 colon tumor cells; HT29, second column): 0.006 ppm
- EC-50 Result (MX1 breast cells; MX1, first column): 0.02 ppm
- EC-50 Result (MX1 breast cells; MX1, second column): 0.001 ppm

SMILES: CC(=O)O[C@H]1C(=O)[C@@]2(C)[C@H]([C@H](OC(=O)c3ccccc3)[C@]3(O)C[C@H](OC(=O)[C@H](O)[C@@H](NC(=O)c4ccccc4)c4ccccc4)C(C)=C1C3(C)C)[C@]1(OC(C)=O)CO[C@@H]1C[C@@H]2O [Taxol]
- tumor weight (MCF-7L breast line): 0 mg
- % weight change (wt) [14, 17]: +1%
- toxic deaths/number of test subjects (deaths) [14, 17]: 0/10
- tumor growth suppression (tg supp.) [14, 17]: 75%

SMILES: NC12CC3CC(CC(C3)C1)C2 [amantadine, reference compound]
- mice surviving (influenza [8]; 75 mg/kg, for 21 days): 100%

SMILES: Nc1nc2c(ncn2COCCO)c(=O)[nH]1 [acyclovir, reference compound]
- mean death date (herpes [3]; 75 mg/kg): 17.2 days
- mice survived (herpes [3]; 75 mg/kg): 60%

SMILES: O=P1(N(CCCl)CCCl)NCCCO1 (stereo not shown) [Cytoxan, reference compound]
- increased life span, Positive Control (P388; P388-luekemia, positive control (125)): curative
- T/C (P388; [18]): 191
- weight change (P388; [18]): −8.43%
- Tumor Growth Decrease (lung): 69%
- Tumor Growth Decrease ([7]; MXI-breast, positive control 125 mg/kg): regression
- % weight change (wt) [14, 19]: −1%
- toxic deaths/number of test subjects (deaths) [14, 19]: 0/10
- tumor growth suppression (tg supp.) [14, 19]: 69%
- % weight change (wt) [14, 20]: +6%
- toxic deaths/number of test subjects (deaths) [14, 20]: 0/10
- tumor growth suppression (tg supp.) [14, 20]: 0%
- % weight change (wt) [14, 21]: +10%
- toxic deaths/number of test subjects (deaths) [14, 21]: 0/10
- tumor growth suppression (tg supp.) [14, 21]: 45%
- % weight change (wt) [14, 22]: −15%
- toxic deaths/number of test subjects (deaths) [14, 22]: 3/10
- tumor growth suppression (tg supp.) [14, 22]: 100%
- % weight change (wt) [14, 23]: −7%
- toxic deaths/number of test subjects (deaths) [14, 23]: 0/10
- tumor growth suppression (tg supp.) [14, 23]: complete
- T/C (B-16 mouse melanoma; [18]): 191
- weight change (B-16 mouse melanoma; [18]): −8.43%

SMILES: CCCCNC(=O)n1c(NC(=O)OC)nc2ccccc21 [benomyl]
- EC-50 Result (A549 lung tumor cells; A549, first column): 0.980 ppm
- EC-50 Result (A549 lung tumor cells; A549, second column): 1.02 ppm
- EC-50 Result (HT29 colon tumor cells; HT29, first column): 0.742 ppm
- EC-50 Result (HT29 colon tumor cells; HT29, second column): 0.747 ppm
- EC-50 Result (MX1 breast cells; MX1, first column): 1.42 ppm
- EC-50 Result (MX1 breast cells; MX1, second column): 2.42 ppm

SMILES: [Cl-].[Na+] [table salt]
- LD50 [15]: 3750 mg/kg

SMILES: N.N.[Cl][Pt][Cl] [cis-plat]
- Tumor Growth Decrease (colon): 59%
